Melting point data for 110 compounds are collected here from a melting point compilation (Tetko et al.).

As usually defined, the melting point is the temperature of the solid-liquid transition.

Each structure is given as a SMILES string.

`O=C(O)c1c[nH]c(=O)c(Cl)c1` showed a melting point of 284 to 286 °C.

With `CSc1nc(O)ns1`, the melting point lay within 158 to 160 °C. The value for `Cc1cccc(Oc2ncccc2[N+](=O)[O-])c1C` was 210 to 213 °C; that for `O=C1C=CC=C2CC1=CC=CC2=O` was 147 °C; that for `CCOC(=O)Nc1ccc(Cl)cc1` was 64 to 66 °C. With `COc1ccc(-n2c(S)nnc2-c2ccc(OC(F)(F)F)cc2)cc1`, the melting point was 178 to 180 °C. In turn, `CCCCCCCCCCCCOc1ccc(C=O)cc1` had a melting point of 28 °C.

`O=[N+]([O-])c1ccc2c(c1)=[N+]([O-])C1(CCCC1)[N+]=2[O-]`: the melting point was in the range of 148 to 150 °C. The same measure for `Cc1c(F)cccc1[N+](=O)[O-]`: 7 °C. Take `COc1ccc(OC(C)=O)cc1`: the melting point was determined as 32 °C. Compound `O=c1nc2ccccc2nc(C(F)(F)F)c1NNc1cccc2ccccc12` returned a melting point of 171 °C. Compound `Ic1ccccc1I` showed a melting point of 27 °C.

Compound `Cc1ccc(C(C)C)c(O)c1C(=O)O` yielded a melting point of 127 °C. Regarding `COC(=O)c1ccc[nH]1`, the melting point was in the range of 73 to 75 °C. Compound `CC(=O)c1c(O)c(C)c(O)c2c1OC1=CC(=O)C(C(C)=O)C(=O)C12C` (stereo not given) yielded a melting point of 204 °C. Regarding `CCOC(=O)c1ccc(OC(C)=O)cc1`, the melting point stood at 34 °C. The same measure for `O=C(N[C@@H]1CCCC[C@@H]1C(=O)O)c1ccccc1`: 204 to 208 °C. Compound `O=C(Cl)c1cc(C(=O)Cl)c([N+](=O)[O-])cc1[N+](=O)[O-]` showed a melting point of 107 °C. The compound `CC1CCC(C)(C(=O)N(C(=O)C2(C)CCC(C)C2(C)C)c2ccccc2)C1(C)C` (stereo not given) yielded a melting point of 212 °C. `N#Cc1ccnc(C#N)c1` registered a melting point of 90 °C.

Turning to `O=C1c2ccc(O)cc2OC(c2ccc(O)c(O)c2)C1O` (stereo not given), the melting point came to 227 °C. Compound `CCOC(=O)Cc1ccncc1` gave a melting point of 19 °C.

With `c1ccc(N2CCN(c3ccccc3)CC2)cc1`, the melting point came out at 165 °C. The value for `c1cc2c3c(c1)CCC3CCC2` (stereo not given) was 12.8 °C; that for `COc1ccc(N/N=C(\C#N)c2nc(C)c(/N=N/c3ccccc3)s2)cc1` was 178 °C.

In turn, `COc1ccc(C(=O)c2cccs2)cc1` returned a melting point of 73 to 76 °C. The compound `CC1C2CCCC(C2=NNC(N)=S)C2(O)CCCCC12` (stereo not given) came in with a melting point of 195 °C.

`O=C(CBr)c1cc(C(=O)CBr)cc(C(=O)CBr)c1` yielded a melting point of 111 °C.

Compound `CC(=O)c1csc(-c2ccccc2)n1` came in with a melting point of 84 °C. The same measure for `COc1c(Cl)c(C)c2c(c1Cl)OC(=O)c1c(C)c(Cl)c(O)c(Cl)c1O2`: 232 °C. The value for `O=C(O)c1cc(F)c(F)c(F)c1F` was 88 to 89 °C; that for `O=C(C=Cc1ccc(OCCCl)cc1)c1ccc(OCCCl)cc1` was 83 °C; that for `O=C(CBr)c1cccs1` was 109 to 111 °C. Consider `N[C@@H](CCCCNC(=O)OCc1ccccc1)C(=O)O`, for which the melting point was 259 °C. `Fc1cc2c(cc1F)Oc1cc(Br)c(Br)cc1O2` gave a melting point of 210 °C. Take `CC(CC(=O)c1ccc(Cl)cc1)C(=O)O` (stereo not given): the melting point lay in the range of 137 to 139 °C. The same measure for `CCn1cc(C(=O)O)c(=O)c2cc(F)c(N3CCNCC3)cc21`: 228 °C; for `Cc1ccc(-c2cc(NN=c3c(C(F)(F)F)nc4ccccc4[nH]c3=O)[nH]n2)cc1`: 135 °C; for `CCOC(=O)c1cccnc1-c1ncccc1C(=O)OCC`: 90 °C.

`CNC(C)(C)C(=O)O`: the melting point worked out at 300 °C. In the case of `Cc1ccncc1C=NO`, the melting point stood at 180 °C. For the compound `CC(C)(C)NC[C@H](O)CO`, the melting point lay in the range of 85 to 89 °C. Turning to `CSc1nnc(C(C)(C)C)c(=O)n1N`, the melting point is 126 °C. The same measure for `CCN(CCO)CCn1c(Cc2ccccc2)nc2c1c(=O)n(C)c(=O)n2C`: 80 °C; for `O=S(=O)(n1ccnc1)C(F)(F)F`: 19 to 21 °C. Compound `CC1CCOS(=O)O1` (stereo not given) came in with a melting point of 5 °C.

As to `CC(C=CC=C(C)C=CC1=C(C)CCCC1(C)C)=CC=CC=C(C)C=CC=C(C)C=CC1=C(C)CC(O)CC1(C)C` (stereo not given), the melting point amounted to 160 °C. `O=C(NC(Cc1ccco1)C(=O)O)OCC1c2ccccc2-c2ccccc21` (stereo not given): the melting point came to 130 °C.

For `O=C(Cl)c1ccc(Oc2cc(Cl)cc(Cl)c2)o1`, the melting point is 60 to 62 °C. With `CC1(C)CC(=O)c2cc(-c3ccccc3)n(-c3ccc(Cl)cc3)c2C1`, the melting point lay within 185 to 187 °C.

`CN1CCC(N(Cc2ccccc2)c2ccccc2)CC1` had a melting point of 114 °C.

`CC(C)(C)OC(=O)NO` showed a melting point of 57 °C. Turning to `CCC(=O)OC1CCC2(C)C(=CCC3C2CCC2(C)C(OC(=O)CC)CCC32)C1` (stereo not given), the melting point is 113 °C. `COC(=O)c1cncc(Br)c1` returned a melting point of 98 to 100 °C. `O=C(Cl)c1ccc2c(c1)OCCCO2`: the melting point was in the range of 29 to 33 °C.

Take `Cc1[nH]nc(Cl)c1[N+](=O)[O-]`: the melting point was determined as 111 °C. In turn, `COc1ccc(C(=O)CC#N)cc1` displayed a melting point of 129 to 132 °C. `CC(C)(C(N)=O)n1nc2ccccc2n1` displayed a melting point of 174 °C. `COc1cc(Cc2cnc(N)nc2N)cc(OC)c1Br` gave a melting point of 226 °C. The value for `CC1CCC(C(C)C)C(OC(=O)C(C=Cc2ccccc2)C(=O)c2ccccc2)C1` (stereo not given) was 104 °C; that for `CC12CCC3=C(CC[C@]4(C)C(=O)CC[C@@H]34)[C@H]1CCC(=O)C2` (stereo not given in full) was 149 °C; that for `NNC(=O)c1cnn(-c2ccccc2)c1C(F)(F)F` was 153 to 155 °C. The value for `CC1C(=O)OC(C)(C)OC1=O` was 109 to 113 °C; that for `CCCCCCCCCCC(C)CC` (stereo not given) was -38 °C. The compound `COc1cc(Cl)ccc1[N+](=O)[O-]` had a melting point of 71 °C. With `O=C(NCc1ccc(S(=O)(=O)Cl)s1)c1ccccc1`, the melting point lay in the range of 123 to 125 °C. `CC(=O)c1ccc2ccc3cccc4ccc1c2c34` yielded a melting point of 88 °C.

In turn, `COc1ccc2[nH]cc(CCN)c2c1` displayed a melting point of 122 °C. Consider `COc1ccc(/N=N/c2c(N)nn3c(C(F)(F)F)cc(C)nc23)cc1`, for which the melting point was 158 °C. `COc1cc(CCC(=O)O)ccc1O` came in with a melting point of 90 °C. Compound `NC(=O)C1CCNCC1` registered a melting point of 148 °C. The same measure for `FC(F)(F)c1cccnc1S`: 180 to 182 °C; for `O=C1c2cc([N+](=O)[O-])ccc2-c2ccc([N+](=O)[O-])cc21`: 294 °C. With `CCOC(=O)Nc1ccc(NCc2ccc(F)cc2)nc1N`, the melting point was 114 °C.

As to `O=Cc1ccc(OCc2ccc([N+](=O)[O-])cc2)cc1`, the melting point was 130 °C. In turn, `BrCc1cc(Br)cc(Br)c1` had a melting point of 94 °C. `Cc1nc(CC(=O)O)cs1` yielded a melting point of 124 to 125 °C.

In turn, `CN1CCCN(C)CCN(C)CCCN(C)CC1` gave a melting point of 41 to 43 °C. Regarding `COC(=O)[C@H]1C[C@]2(Sc3ccccc3)O[C@@]1(c1ccc(OC)cc1)c1c2cc(Cl)nc1Cl`, the melting point stood at 118 °C.

`COC(=O)CSc1cc(C(F)(F)F)nc2ccccc12` returned a melting point of 96 to 98 °C.

In turn, `CC(C)(C=O)C(c1ccccc1)C(C(=O)O)C(=O)O` (stereo not given) registered a melting point of 153 °C. Consider `NCc1ccc(CN2CCOCC2)cc1`, for which the melting point was 54 to 55 °C.

Compound `Cn1nc2ccccc2c1C=O` yielded a melting point of 75 to 77 °C. `COc1ccc(C=Cc2ccc(OC)cc2)cc1` showed a melting point of 214 °C. In turn, `O=[N+]([O-])c1ccccc1/C=C/c1nc2ccccc2[nH]1` yielded a melting point of 215 °C.

Turning to `Cc1ccsc1C`, the melting point was -49 °C. Regarding `Nc1nc(-c2ccc3c(c2)Cc2ccccc2-3)cs1`, the melting point was in the range of 261 to 264 °C.

Consider `Cc1c(NC(=O)C(C)N(C)C)c(=O)n(-c2ccccc2)n1C` (stereo not given), for which the melting point was 181 °C.

`Nc1nccc(-c2ccncc2)n1` yielded a melting point of 81.3 °C. `COc1ncc(F)cc1F`: the melting point was 38 °C. `CCCCCCN(C)C(=O)COC(=O)c1ccccc1` came in with a melting point of 100 °C.

`C=CC#CC=C` showed a melting point of -88 °C. The value for `O=C(O)c1ccc2[nH]c3c(c2c1)CCCC3` was 266 to 268 °C; that for `C(=Cc1ccc2ccc3ccccc3c2c1)c1ccc2ccccc2c1` was 213 °C; that for `CC(=O)c1ccc(Cl)s1` was 49 °C. As for `O=C1CC2C(CC(OC(=O)c3ccccc3)C2CO)O1` (single isomer, unassigned; (-)), the melting point fell in the range of 116 to 120 °C. Turning to `C=C(C)C=CC(=C)C`, the melting point was -9 °C. As for `O=[N+]([O-])c1ccccc1/C=C/c1ccccc1`, the melting point was found to be 73 °C.

Compound `c1cc(N2CCCC2)ccn1` showed a melting point of 56 °C. As to `O=Cc1ccc(-c2cncnc2)cc1`, the melting point was in the range of 147 to 148 °C. `O=C(C1=NOC2C(=O)N(c3ccccc3[N+](=O)[O-])C(=O)C12)c1ccc2ccccc2c1` (stereo not given) came in with a melting point of 176 °C.

The compound `CCCCCCCCCCCCCCCC(=O)Oc1ccc([N+](=O)[O-])cc1` came in with a melting point of 66 °C. In the case of `CCc1cccc(N)c1`, the melting point was -8 °C. In turn, `C#Cc1ccc(C(C)=O)cc1` had a melting point of 68 to 70 °C. For `O=C(O)c1cc(F)ccc1[N+](=O)[O-]`, the melting point came to 135 °C.

`CN(C)[Si](C)(N(C)C)N(C)C`: the melting point was -11 °C. As for `CC(C=Cc1ccccc1)c1ccccc1` (stereo not given), the melting point came out at 47.5 °C.

On to `CC(=O)N1c2cc3[nH]c(C)cc3cc2CC1C` (stereo not given), for which the melting point came out at 275 °C.

`C=Cc1c2ccccc2cc2ccccc12` had a melting point of 64 to 66 °C. Consider `O=C(N[C@H](Cc1ccc(Cl)cc1)C(=O)O)OCC1c2ccccc2-c2ccccc21`, for which the melting point is 147 °C.
